Patent US10894775B2, “Piperidine derivatives as liver X receptor beta agonists, compositions, and their use” (Merck Sharp & Dohme Corp., priority 2016, dated 2021)
pEC50: −log10 of the molar value. Like-named read-outs stand apart in the source and are kept apart here.

Legend:
[1] = biological target: T1, glutathione-S-transferase (GST) tagged LXRbeta LBD (ligand binding domain) (Homo sapiens, UniProt P55055); assay: LanthaScreen TR-FRET Liver X Receptor Coactivator Assay, LXR beta; type: biochemical; details: for Emax: read-out: LXR beta actiivty at max dose (%); for pEC50: read-out: LXR beta IP
T1 construct: purchased Invitrogen pv4658.pps
T1 sequence (P55055 222-460 limits assumed): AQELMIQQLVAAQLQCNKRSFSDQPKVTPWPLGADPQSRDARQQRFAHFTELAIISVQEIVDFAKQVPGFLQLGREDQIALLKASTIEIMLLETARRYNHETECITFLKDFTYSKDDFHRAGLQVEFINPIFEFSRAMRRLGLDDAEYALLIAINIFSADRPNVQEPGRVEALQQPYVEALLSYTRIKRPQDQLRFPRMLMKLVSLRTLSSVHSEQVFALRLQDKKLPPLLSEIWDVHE
Protocol: (§1) While running the LanthaScreen™ TR-FRET Liver X Receptor Coactivator Assay, LXR alpha-LBD or LXR beta-LBD was added to ligand test compounds followed by addition of a mixture of a fluorescein-labelled coactivator peptide and terbium-conjugated anti-GST antibody. After an incubation period at room temperature, TR-FRET (time-resolved fluorescence resonance energy transfer) was measured using a filter-based instrument capable of TR-FRET, e.g. PerkinElmer Envision.

[2] = biological target: T2, glutathione-S-transferase (GST) tagged LXRalpha LBD (ligand binding domain) (Homo sapiens, UniProt Q13133); assay: LanthaScreen TR-FRET Liver X Receptor Coactivator Assay, LXR alpha; type: biochemical; details: for Emax: read-out: LXR alpha actiivty at max dose (%); for pEC50 / LXR alpha IP (nM): potency (Inflection Point) of compound-induced co-activator recruitment, TR-FRET; for pEC50: read-out: LXR alpha IP
T2 construct: purchased Invitrogen pv4655
T2 sequence (Q13133 209-447 limits assumed): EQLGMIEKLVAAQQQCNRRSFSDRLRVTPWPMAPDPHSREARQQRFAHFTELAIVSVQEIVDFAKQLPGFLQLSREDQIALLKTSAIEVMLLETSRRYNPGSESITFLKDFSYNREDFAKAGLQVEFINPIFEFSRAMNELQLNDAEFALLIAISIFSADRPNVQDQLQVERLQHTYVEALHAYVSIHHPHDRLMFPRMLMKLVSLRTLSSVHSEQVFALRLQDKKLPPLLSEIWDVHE
Protocol: as §1

[3] = efficacy (Emax) in relation to reference dual agonist T0901317
[4] = potency (Inflection Point) of compound-induced co-activator recruitment, TR-FRET

Row | SMILES | EC50 ([1]; LXR beta IP (nM), potency (Inflection Point) of compound-induced co-activator recruitment, TR-FRET) [nM] | Emax [1] [%] | Emax [2, 3] [%] | pEC50 [2] | Emax [1, 3] [%] | pEC50 [1, 4] | LXR alpha IP (nM) [2] | LXR beta actiivty at max dose (%) [1, 3] [%] | LXR alpha actiivty at max dose (%) [2, 3] [%]
1 | CC(CC1CC12CCN(C(=O)C1(c3ccccc3)CCC1)CC2)Nc1ccc(C(=O)N(C)C)c(Cl)c1 (single isomer, unassigned) [Example 5-1, 2-chloro-N,N-dimethyl-4-(1-((S or R)-6-(1-phenylcyclobutanecarbonyl)-6-azaspiro[2.5]octan-1-yl)propan-2-ylamino)benzamide] | 5 | 41 | 56 | 6.66 |  |  |  |  | 
2 | CN(C)C(=O)c1ccc(NCCC[C@H]2CC23CCN(C(=O)[C@@](O)(c2ccccc2)C(F)(F)C(F)(F)F)CC3)cc1Cl (single isomer, unassigned) [Example 6-7, 2-chloro-N,N-dimethyl-4-(3-((S or R)-6-((S or R)-3,3,4,4,4-pentafluoro-2-hydroxy-2-phenylbutanoyl)-6-azaspiro[2.5]octan-1-yl)propylamino)benzamide] |  |  | 9 |  | 91 | 7.17 | No IP |  | 
3 | CNC(=O)c1ccc(NCCCCC2CCN(C(=O)C(O)(c3ccccc3)C(F)(F)F)CC2)cc1Cl (single isomer, unassigned) [Example 1-3, (R or S)-2-chloro-N-methyl-4-(4-(1-(3,3,3-trifluoro-2-hydroxy-2-phenylpropanoyl)piperidin-4-yl)butylamino)benzamide] |  |  | 38 | 6.32 | 75 | 8.05 |  |  | 
4 | CN(C)C(=O)c1ccc(NCCCCC2CCN(C(=O)OCc3ccccc3)CC2)cc1Cl [Example 1-14, benzyl 4-(4-(3-chloro-4-(dimethylcarbamoyl)phenylamino)butyl)piperidine-1-carboxylate] |  |  | 14 | 5.70 | 41 | 6.97 |  |  | 
5 | CN(C)C(=O)c1ccc(NCCC[C@H]2CC23CCN(C(=O)[C@](O)(c2ccccc2)C(F)(F)F)CC3)cc1Cl (single isomer, unassigned) [Example 6-2, 2-chloro-N,N-dimethyl-4-(3-((S or R)-6-((R or S)-3,3,3-trifluoro-2-hydroxy-2-phenylpropanoyl)-6-azaspiro[2.5]octan-1-yl)propylamino)benzamide] |  |  | 11 | 6.33 | 56 | 8.10 |  |  | 
6 | COc1cccc([C@@](O)(C(=O)N2CCC3(CC2)C[C@H]3CCCc2ccc(C(=O)NC3CC3)c(Cl)c2)C(F)(F)F)c1 (single isomer, unassigned) [Example 17-3, 2-chloro-N-cyclopropyl-4-(3-((R or S)-6-((R or S)-3,3,3-trifluoro-2-hydroxy-2-(3-methoxyphenyl)propanoyl)-6-azaspiro[2.5]octan-1-yl)propyl)benzamide] |  |  | 8 |  | 43 | 7.72 | No IP |  | 
7 | CC(CCCC1CCN(C(=O)[C@](O)(c2ccccc2)C(F)(F)F)CC1)Nc1ccc(C(=O)N(C)C)c(Cl)c1 (single isomer, unassigned) [Example 4-4, 2-chloro-N,N-dimethyl-4-((R or S)-5-(1-((R or S)-3,3,3-trifluoro-2-hydroxy-2-phenylpropanoyl)piperidin-4-yl)pentan-2-ylamino)benzamide] |  |  |  |  |  | 6.49 | No IP | 59 | 7
8 | COc1cccc([C@@](O)(C(=O)N2CCC(CCCC(C)Nc3ccc(C(=O)N(C)C)c(Cl)c3)CC2)C(F)(F)F)c1 (single isomer, unassigned) [Example 4-5, 2-chloro-N,N-dimethyl-4-((R or S)-5-(1-((R or S)-3,3,3-trifluoro-2-hydroxy-2-(3-methoxyphenyl)propanoyl)piperidin-4-yl)pentan-2-ylamino)benzamide] |  |  | 0 |  | 17 | 5.42 | No IP |  | 
